Reference: US20070105837A1, “Novel derivatives of 4a,5,9,10,11,12-hexahydrobenzofuro[3a,3,2][2]-benzazepine, method for the production thereof and use thereof in the production of medicaments” (priority 2003, published 2007)
Where a name gives a salt, the structure may show the parent alone. Read-outs that look alike come from different tables or passages of the source.

Assays:
acetylcholinesterase = acetylcholinesterase (Homo sapiens, UniProt P22303); experiment: biochemical
butyrylcholinesterase = butyrylcholinesterase (Homo sapiens, UniProt P06276); experiment: biochemical
[1] = read-out: Acetylcholinesterase IC-50
[2] = read-out: Butyrylcholinesterase IC-50

Chain of acetylcholinesterase (P22303 32-614, species assumed): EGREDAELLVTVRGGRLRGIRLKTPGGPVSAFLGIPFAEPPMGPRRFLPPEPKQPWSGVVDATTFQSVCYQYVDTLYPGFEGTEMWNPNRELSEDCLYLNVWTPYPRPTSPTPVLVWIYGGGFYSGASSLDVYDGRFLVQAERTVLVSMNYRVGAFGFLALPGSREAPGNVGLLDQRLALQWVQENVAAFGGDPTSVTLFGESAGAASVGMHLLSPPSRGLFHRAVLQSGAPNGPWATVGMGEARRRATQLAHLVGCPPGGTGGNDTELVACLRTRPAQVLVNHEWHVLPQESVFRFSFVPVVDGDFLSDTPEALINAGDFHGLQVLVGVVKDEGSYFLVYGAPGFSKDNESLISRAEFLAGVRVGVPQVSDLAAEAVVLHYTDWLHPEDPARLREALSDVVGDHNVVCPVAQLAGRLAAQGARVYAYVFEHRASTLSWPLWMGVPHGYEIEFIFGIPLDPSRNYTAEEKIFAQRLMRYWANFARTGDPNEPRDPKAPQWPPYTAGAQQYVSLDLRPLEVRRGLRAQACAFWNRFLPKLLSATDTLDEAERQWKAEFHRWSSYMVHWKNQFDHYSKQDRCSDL
Chain of butyrylcholinesterase (P06276 29-602): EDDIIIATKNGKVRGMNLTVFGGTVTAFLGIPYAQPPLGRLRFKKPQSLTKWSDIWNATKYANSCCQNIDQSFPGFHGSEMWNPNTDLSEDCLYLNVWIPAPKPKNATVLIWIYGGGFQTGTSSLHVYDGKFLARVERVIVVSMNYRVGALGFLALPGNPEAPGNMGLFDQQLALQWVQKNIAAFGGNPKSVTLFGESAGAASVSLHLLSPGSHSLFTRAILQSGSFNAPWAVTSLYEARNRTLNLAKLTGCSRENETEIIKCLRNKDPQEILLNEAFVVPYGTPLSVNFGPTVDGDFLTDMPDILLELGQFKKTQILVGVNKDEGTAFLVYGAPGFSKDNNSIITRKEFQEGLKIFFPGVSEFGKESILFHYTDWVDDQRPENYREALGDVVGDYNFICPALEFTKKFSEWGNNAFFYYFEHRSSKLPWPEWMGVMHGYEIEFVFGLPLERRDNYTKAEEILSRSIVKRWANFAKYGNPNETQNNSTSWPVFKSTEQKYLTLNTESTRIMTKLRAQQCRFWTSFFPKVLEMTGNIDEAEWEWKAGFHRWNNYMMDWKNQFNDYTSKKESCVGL

For `COc1cc(Br)c2c3c1OC1C[C@H](O)C=C[C@]31CCN(CCN1CCOCC1)C2` (single isomer, unassigned) [Example 58], which IC50 (acetylcholinesterase; [1]) is on record?
The IC50 was greater than 100 µM.

What about the IC50 (butyrylcholinesterase; [2]) of the same compound?
Its IC50 is 53 µM.

With `COc1ccc2c3c1O[C@H]1C[C@@H](O)C=C[C@@]31CCN(C(N)=S)C2` (stereo in doubt) [Example 30, (4aS,6R,8aS)-6-hydroxy-3-methoxy-5,6,9,10-tetrahydro-4aH-[1]benzofuro[3a,3,2-ef][2]benzazepine-11(12H)-carbothioamide] as the compound, how does the IC50 (acetylcholinesterase; [1]) read?
Its IC50 is greater than 100 µM.

And the IC50 (butyrylcholinesterase; [2])?
The IC50 was greater than 100 µM.

With `COc1cc(Br)c2c3c1O[C@H]1C[C@H](O)C=C[C@@]31CCNC2` [Example 1, (4aS,6S,8S)-1-bromo-4a,5,9,10,11,12-hexahydro-3-methoxy-6H-[1]benzofuro[3a,3,2-ef][2]benzazepin-6-ol.] as the compound, how does the IC50 (acetylcholinesterase) read?
The IC50 was greater than 100 µM.

And the IC50 (butyrylcholinesterase)?
Its IC50 is greater than 100 µM.

How did the IC50 (acetylcholinesterase) turn out when `COc1cc(Br)c2c3c1O[C@@H]1C[C@@H](O)C=C[C@]31CCNC2` [Example 3, (4aR,6R,8R)-1-bromo-4a,5,9,10,11,12-hexahydro-3-methoxy-6H-[1]benzofuro[3a,3,2-ef][2]benzazepin-6-ol.] was run?
Its IC50 is greater than 100 µM.

And the IC50 (butyrylcholinesterase)?
The IC50 was greater than 100 µM.

For `CNC(=S)N1CC[C@]23C=C[C@H](O)C[C@H]2Oc2c(OC)cc(Br)c(c23)C1` [Example 4, (4aR,6R,8aR)-1-brorno-4a,5,9,10-tetrahydro-6-hydroxy-3-methoxy-6H-[1]benzofuro-[3a,3,2-ef][2]benzazepine-11(12H)-thiocarbonic acid methylamide], which IC50 (acetylcholinesterase; [1]) is on record?
The IC50 was greater than 100 µM.

And the IC50 (butyrylcholinesterase; [2])?
The IC50 was greater than 100 µM.

With `COc1cc(Br)c2c3c1O[C@@H]1C[C@H](O)C=C[C@]31CCN(Cc1ccccc1)C2` [Example 6, (4aR,6S,8aR)-11-benzyl-1-bromo-4a,5,9,10,11,12-hexahydro-3-methoxy-6H-[1]benzofuro[3a,3,2-ef][2]benzazepin-6-ol] as the compound, how does the IC50 (acetylcholinesterase; [1]) read?
Its IC50 is greater than 100 µM.

And the IC50 (butyrylcholinesterase; [2])?
The IC50 was 19 µM.

How did the IC50 (acetylcholinesterase; [1]) turn out when `COc1cc(Br)c2c3c1O[C@@H]1C[C@H](O)C=C[C@]31CCN(CCCN1CCN(C)CC1)C2` [Example 8, (4aR,6R,8aR)-11-(3-(4-methylpiperazine)-1-yl-propyl)-3-methoxy-5,6,9,10,11,12-hexahydro-4aH-[1]benzofuro[3a,3,2-ef][2]benzazepin-6-oI, Trihydrochloride] was run?
The IC50 was greater than 100 µM.

With `COC(=O)CCC(=O)N1CC[C@]23C=C[C@@H](O)C[C@H]2Oc2c(OC)cc(Br)c(c23)C1` [Example 9, Methyl-4-((4aR,6S,8aR)-1-bromo-4a,5,9,10,11,12-hexahydro-6-hydroxy-3-methoxy-6H-benzofuro[3a,3,2-ef][2]benzazepine-11-yl)gamma-oxobutyrate] as the compound, how does the IC50 (acetylcholinesterase; [1]) read?
Its IC50 is greater than 100 µM.

And the IC50 (butyrylcholinesterase; [2])?
Its IC50 is greater than 100 µM.

How did the IC50 (butyrylcholinesterase; [2]) turn out when `COc1ccc2c3c1O[C@H]1C[C@@H](O)C=C[C@@]31CCN(CCc1ccccc1Nc1c(Cl)cccc1Cl)C2` [Example 40, 1-((4aS,6R,8aS)-6-hydroxy-3-methoxy-5,6,9,10-tetrahydro-4aH-[1]benzofuro[3a,3,2-ef][2]benzazepine-11(12H)-yl)-2-[2-(2,6-dichloranilino)]-phenylethane] was run?
The IC50 was 1.3 µM.

With `COc1ccc2c3c1O[C@H]1C[C@@H](O)C=C[C@@]31CCN(C(=O)c1ccc(Br)cc1)C2` [Example 41, (4aS,6R,8aS)-4a,5,9,10,11,12-hexahydro-3-methoxy-11-(4-bromo-benzoyl)-6H-[1]benzofuro[3a,3,2-ef][2]benzazepin-6-ol] as the compound, how does the IC50 (butyrylcholinesterase; [2]) read?
The IC50 was 30 µM.

`COc1ccc2c3c1O[C@H]1C[C@@H](O)C=C[C@@]31CCN(Cc1ccc(Br)cc1)C2` [Example 43, (4aS,6R,8aS)-11-(4-brombenzyl)-4a,5,9,10,11,12-hexahydro-3-methoxy-6H-[1]benzofuro[3a,3,2-ef][2]benzazepin-6-ol] was tested. Which IC50 (butyrylcholinesterase) did it give?
Its IC50 is 0.0006 µM.

Which IC50 (butyrylcholinesterase; [2]) does the source give for `CCOC(=O)CN1CC[C@@]23C=C[C@H](O)C[C@@H]2Oc2c(OC)ccc(c23)C1` [Example 44, Ethyl-2-((4aS,6R,8aS)-6-hydroxy-3-methoxy-5,6,9,10-tetrahydro-4aH-[1]benzofuro[3a,3,2-ef][2]benzazepine-11(12H)-yl)acetate] here?
Its IC50 is 42 µM.

How did the IC50 (butyrylcholinesterase) turn out when `C=C(C)CN1CC[C@@]23C=C[C@H](O)C[C@@H]2Oc2c(OC)ccc(c23)C1` [Example 46, (4aS,6R,8aS)-4a,5,9,10,11,12-hexahydro-3-methoxy-11-(2-methyl-prop-2-enyl)-6H-[1]benzofuro[3a,3,2-ef][2]benzazepin-6-ol, hydrochloride] was run?
The IC50 was 0.34 µM.

`CCOC(=O)CCN1CC[C@@]23C=C[C@H](O)C[C@@H]2Oc2c(OC)ccc(c23)C1` [Example 47, Ethyl-3-((4aS,6R,8aS)-6-hydroxy-3-methoxy-5,6,9,10-tetrahydro-4aH-[1]benzofuro[3a,3,2-ef][2]benzazepine-11(12H)-yl)propanoate, hydrochloride] was tested. Which IC50 (butyrylcholinesterase; [2]) did it give?
Its IC50 is 51 µM.

`COc1ccc2c3c1O[C@H]1C[C@@H](O)C=C[C@@]31CCN(C(=O)CN1CCOCC1)C2` [Example 48, 1-[(4aS,6R,8aS)-6-hydroxy-3-methoxy-5,6,9,10-tetrahydro-4aH-[1]benzofuro[3a,3,2-ef][2]benzazepine-11(12H)-yl]-2-(4-morpholinyl) ethan-1-one] was tested. Which IC50 (butyrylcholinesterase; [2]) did it give?
The IC50 was 3.8 µM.

For `CCN(CC)CC(=O)N1CC[C@@]23C=C[C@H](O)C[C@@H]2Oc2c(OC)ccc(c23)C1` [Example 49, 1-((4aS,6R,8aS)-6-hydroxy-3-methoxy-5,6,9,10-tetrahydro-4aH-[1]benzofuro[3a,3,2-ef][2]benzazepine-11(12H)-yl]-2-(diethylamino) ethan-1-one], which IC50 (butyrylcholinesterase; [2]) is on record?
Its IC50 is 40 µM.

Which IC50 (butyrylcholinesterase; [2]) does the source give for `COc1ccc2c3c1O[C@H]1C[C@@H](O)C=C[C@@]31CCN(CCCN(C)C)C2` [Example 52, (4aS,6R,8aS)-11-((3-dimethylamino)propyl)-3-methoxy-5,6,9,10,11,12-hexahydro-4aH-[1]benzofuro[3a,3,2-ef][2]benzazepin-6-ol] here?
Its IC50 is 2.1 µM.

How did the IC50 (butyrylcholinesterase; [2]) turn out when `COc1ccc2c3c1O[C@H]1C[C@@H](O)C=C[C@@]31CCN(C(=O)NC1CCCCC1)C2` [Example 53, (4aS,6R,8aS)-N11-cydohexyl-6-hydroxy-3-methoxy-5,6,9,10-tetrahydro-4aH-[1]benzofuro[3a, 3,2-ef][2]benzazepine-11(12H)-carbonic acid isopropylamide] was run?
The IC50 was greater than 100 µM.

With `COc1ccc2c3c1O[C@H]1C[C@@H](O)C=C[C@@]31CCN(C(=O)CCl)C2` [Example 54, 1-[(4aS,6R,8aS)-6-hydroxy-3-methoxy-5,6,9,10-tetrahydro-4aH-[1]benzofuro[3a,3,2-ef][2]benzazepine-11(12H)-yl]-2-chloroethan-1-one] as the compound, how does the IC50 (butyrylcholinesterase; [2]) read?
Its IC50 is greater than 100 µM.

`COc1ccc2c3c1O[C@@H]1C[C@H](O)C=C[C@]31CC[N+](C)=C2` [Example 55, (4aR,6S,8aR)-6-hydroxy-3-methoxy-11-methyl-4a,5,9,10-tetrnhydro-6H-benzofuro[3a,3,2-eq][2]benzazepinium bromide] was tested. Which IC50 (butyrylcholinesterase) did it give?
The IC50 was greater than 100 µM.

Which IC50 (butyrylcholinesterase) does the source give for `COc1ccc2c3c1O[C@@H]1C[C@@H](O)C=C[C@]31CC[N+](C)=C2` [Example 56, (4aR,6R,8aR)-6-hydroxy-3-methoxy-11-methyl-4a,5,9,10-tetrahydro-6H-benzofuro[3a,3,2-ef][2]benzazepineium bromide] here?
The IC50 was greater than 100 µM.

Which IC50 (butyrylcholinesterase; concentration at which 50% inhibition occurs, read-out: Butyrylcholinesterase IC-50) does the source give for “(4aS,6S,8aS)-1-bromo-6-hydroxy-3-methoxy-4a,5, 9,10-tetrahydro-6N-[1]benzofuro[3a,3,2-et][2]benzazepine-11(12H)-thiocarbonic acid allylamide [Example 2]” here?
The IC50 was greater than 100 µM.
